Counter-ions that a name gives are not always drawn.
Biological target: T1, hTRPC5 (Homo sapiens, UniProt Q9UL62)
T1 construct: expressed in transfected cells; host or cells: HEK293 TREx cells with inducible TRPC5 expression
T1 sequence (Q9UL62 1-973): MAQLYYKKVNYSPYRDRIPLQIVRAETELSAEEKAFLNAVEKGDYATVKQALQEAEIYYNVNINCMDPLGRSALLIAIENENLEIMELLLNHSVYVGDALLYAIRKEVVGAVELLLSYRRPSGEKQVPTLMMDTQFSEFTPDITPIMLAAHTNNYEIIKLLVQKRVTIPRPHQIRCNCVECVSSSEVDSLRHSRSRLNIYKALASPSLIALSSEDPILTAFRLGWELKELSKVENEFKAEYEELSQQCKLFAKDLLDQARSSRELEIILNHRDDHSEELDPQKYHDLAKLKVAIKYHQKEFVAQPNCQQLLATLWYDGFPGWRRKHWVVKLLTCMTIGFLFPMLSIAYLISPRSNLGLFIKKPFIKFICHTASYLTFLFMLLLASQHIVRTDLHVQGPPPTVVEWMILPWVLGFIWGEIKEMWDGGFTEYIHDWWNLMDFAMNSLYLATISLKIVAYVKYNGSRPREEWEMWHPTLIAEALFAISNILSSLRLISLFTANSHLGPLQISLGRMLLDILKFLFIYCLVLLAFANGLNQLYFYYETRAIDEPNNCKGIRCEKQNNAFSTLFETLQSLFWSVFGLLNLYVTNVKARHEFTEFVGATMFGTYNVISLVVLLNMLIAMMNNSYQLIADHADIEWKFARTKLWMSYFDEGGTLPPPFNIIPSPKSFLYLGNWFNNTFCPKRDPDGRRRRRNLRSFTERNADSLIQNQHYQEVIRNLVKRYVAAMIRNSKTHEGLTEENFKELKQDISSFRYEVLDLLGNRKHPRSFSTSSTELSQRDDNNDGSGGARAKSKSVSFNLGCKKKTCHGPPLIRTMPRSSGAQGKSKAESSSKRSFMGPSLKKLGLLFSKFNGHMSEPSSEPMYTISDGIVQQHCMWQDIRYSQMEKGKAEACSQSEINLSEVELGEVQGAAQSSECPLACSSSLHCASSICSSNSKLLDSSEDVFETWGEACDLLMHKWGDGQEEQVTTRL
Test: Whole-cell patch clamp, block of LaCl3-activated TRPC5 inward current
Assay type: cell-based
Details: TRPC5-expressing HEK293 TREx cells, 80 μM LaCl3, inward current, IC50 estimated from 5 μM and 500 nM, read-out: hTRPC5 Patch La3+ Inwd (nM) (All Batches)
Procedure: In certain embodiments, exemplary compounds of Formula I and Formula II include the compounds described in Table 1 and in the Examples. A compound described herein may be tested for its ability to block both inward and outward currents through the TRPC5 channel, e.g., by an assay as described in Example 1. For example, IC50 of a compound of Formula I or Formula II was estimated by testing the compound at 5 μM and 500 nM. […] IC50 for a compound of Formula I or Formula II between 500 nM and 5 μM was similarly estimated. As shown, “A” refers to an IC50<100 nM. “B” refers to an IC50 between 100 nM and 500 nM. “C” refers to an IC50 between 500 nM and 1000 nM. “D” refers to an IC50 between 1 μM and 2 μM. “E” refers to an IC50 between 2 μM and 10 μM. “F” refers to […]. “ND” refers to compounds wherein the IC50 was not determined.
Patch clamp experiments permit the detection of currents through the TRPC5 channel in the cell line described above. In normal whole-cell patch clamp recordings, a glass electrode is brought into contact with a single cell and a high-resistance (gigaohm) seal is established with the cell membrane. The membrane is then ruptured to achieve the whole-cell configuration, permitting control of the voltage of the cell membrane and measurement of currents flowing across the membrane using the amplifier attached to the electrode and resulting in the replacement of cytoplasm with the pipette solution. A perfusion system permits control of the extracellular solution, including the addition of blockers and activators of the current. The current can be activated by including 1.4 μM free Ca^2+ in the pipette (intracellular) solution, and 80 μM LaCl3 in the extracellular solution.
TRPC5 cells were induced 20-48 hours, removed from growth plates, and replated at low density (to attain good single-cell physical separation) on glass coverslips for measurement. In some cases, cells were grown in low density overnight on glass coverslips. Patch clamp recordings were made in the whole-cell mode with a holding potential of −40 mV. Every 5 seconds, a voltage ramp was applied from −120 to +100 mV, 400 ms in duration. Currents elicited were quantified at −80 mV and +80 mV. The internal solution consisted of 140 mM cesium aspartate, 10 mM HEDTA, 2 mM CaCl2, 2.27 mM MgCl2 and 10 mM HEPES, pH 7.2, with 1,400 nM calculated free Ca^2+. The external solution consisted of 150 mM NaCl, 4.5 mM KCl, 1 mM MgCl2, 2 mM CaCl2, 10 mM HEPES, 10 mM glucose, 1 mM EGTA, pH 7.4. Upon addition of LaCl3, TRPC5 current was induced only in TRPC5-expressing cells and not in parental HEK293 TREx cells. Removal of the LaCl3 stimulus causes most of the current to go away. Potential blockers were tested for ability to block both inward and outward currents in the continued presence of LaCl3.
IC50 of a compound of Formula I or Formula II was estimated by testing the compound at 5 μM and 500 nM. […] IC50 for a compound of Formula I or Formula II between 500 nM and 5 μM was similarly estimated.

| Structure (SMILES) | IC50 [nM] |
| --- | --- |
| Cn1c(=O)c2c(nc(SCc3ccncc3)n2Cc2cccc(Br)c2)n(C)c1=O [Compound 11, 7-(3-bromobenzyl)-1,3-dimethyl-8-(pyridin-4-ylmethylthio)-1H-purine-2,6(3H,7H)-dione] | 2000 to 10000 |
| CCOCC[S+]([O-])c1nc2c(c(=O)n(C)c(=O)n2C)n1Cc1cccc(Br)c1 (stereo not drawn) [Compound 15] | 2000 to 10000 |
| CCCOCCc1nc2c(c(=O)n(C)c(=O)n2C)n1Cc1ccc(F)cc1 [Compound 108] | 2000 to 10000 |
| Cn1c(=O)c2c(nc(Oc3cccc(C(F)(F)F)c3)n2Cc2ccc3ccccc3c2)n(C)c1=O [Compound 185, 1,3-dimethyl-7-(naphthalen-2-ylmethyl)-8-(3-(trifluoromethyl)phenoxy)-1H-purine-2,6(3H,7H)-dione] | 2000 to 10000 |
| CCCN(C)CCc1nc2c(c(=O)n(C)c(=O)n2C)n1Cc1cccc(Br)c1 [Compound 48, 7-(3-Bromobenzyl)-1,3-dimethyl-8-(2-(methyl(propyl)amino)ethyl)-1H-purine-2,6(3H,7H)-dione hydrochloride] | 2000 to 10000 |
| Cn1c(=O)c2c(nc(Oc3cccc(CO)c3)n2Cc2cccc(Cl)c2)n(C)c1=O [Compound 140] | 2000 to 10000 |
| CN(C)C(=O)c1cccc(Oc2nc3c(c(=O)n(C)c(=O)n3C)n2Cc2cccc(Br)c2)c1 [Compound 127] | 2000 to 10000 |
| C[C@H]1CCCN1c1ncc(-c2cccc(NC(=O)Cc3nc4c(c(=O)n(C)c(=O)n4C)n3Cc3cccc(Br)c3)n2)cn1 [Compound 30] | 2000 to 10000 |
| CN(C)CCCSc1nc2c(c(=O)n(C)c(=O)n2C)n1Cc1cccc(Br)c1 [Compound 22] | 2000 to 10000 |
| Cn1c(=O)c2c(nc(OCC3CCCC3)n2Cc2ccc(Cl)cc2)n(C)c1=O [Compound 216, 7-(4-Chlorobenzyl)-8-(cyclopentylmethoxy)-1,3-dimethyl-1H-purine-2,6(3H,7H)-dione] | 100 to 500 |
| Cc1coc(-c2cccc(Oc3nc4c(c(=O)n(C)c(=O)n4C)n3Cc3cccc(Br)c3)c2)n1 [Compound 103, 7-(3-bromobenzyl)-1,3-dimethyl-8-(3-(4-methyloxazol-2-yl)phenoxy)-1H-purine-2,6(3H,7H)-dione] | 2000 to 10000 |
| Cn1c(=O)c2c(nc(Oc3cccc(F)c3)n2Cc2cccc(Br)c2)n(C)c1=O [Compound 111, 7-(3-bromobenzyl)-8-(3-fluorophenoxy)-1,3-dimethyl-1H-purine-2,6(3H,7H)-dione] | 1000 to 2000 |
| Cn1c(=O)c2c(nc(SCc3cccnc3)n2Cc2cccc(Br)c2)n(C)c1=O [Compound 10, 7-(3-bromobenzyl)-1,3-dimethyl-8-(pyridin-3-ylmethylthio)-1H-purine-2,6(3H,7H)-dione] | 2000 to 10000 |
| CCOC(=O)C(C)(C)CCc1nc2c(c(=O)n(C)c(=O)n2C)n1Cc1cccc(Br)c1 [Compound 83] | 2000 to 10000 |
| CCCOCCc1nc2c(c(=O)n(C)c(=O)n2C)n1Cc1cccc(-c2ccccc2)c1 [Compound 128, 7-(biphenyl-3-ylmethyl)-1,3-dimethyl-8-(2-propoxyethyl)-1H-purine-2,6(3H,7H)-dione] | 100 to 500 |
| CCCOCCc1nc2c(c(=O)n(C)c(=O)n2C)n1Cc1cccc(C(N)=O)c1 [Compound 121] | 2000 to 10000 |
| CCC(CO)NC(=O)C(C)Cc1nc2c(c(=O)n(C)c(=O)n2C)n1Cc1cccc(Br)c1 (stereo not drawn) [Compound 165] | 2000 to 10000 |
| COc1cc(Cn2c(Oc3cccc(OC(F)(F)F)c3)nc3c2c(=O)n(C)c(=O)n3C)ccc1Cl [Compound 205, 7-(4-chloro-3-methoxybenzyl)-1,3-dimethyl-8-(3-(trifluoromethoxy)phenoxy)-1H-purine-2,6(3H,7H)-dione] | 100 to 500 |
| CCCOCCc1nc2c(c(=O)n(C)c(=O)n2C)n1Cc1cccc(C)c1 [Compound 90] | 1000 to 2000 |
| C=Cc1nc2c(c(=O)n(C)c(=O)n2C)n1Cc1cccc(Br)c1 [Compound 41, 7-(3-Bromobenzyl)-1,3-dimethyl-8-vinyl-1H-purine-2,6(3H,7H)-dione] | 2000 to 10000 |
| Cn1c(=O)c2c(nc(CN3CCOCC3)n2Cc2cccc(Br)c2)n(C)c1=O [Compound 52] | 2000 to 10000 |

The next lines start with the values.

| IC50 [nM] | Structure (SMILES) |
| --- | --- |
| 100 to 500 | CCc1coc(CSc2nc3c(c(=O)n(C)c(=O)n3C)n2Cc2cccc(OC(F)(F)F)c2)n1 [Compound 106, 8-((4-ethyloxazol-2-yl)methylthio)-1,3-dimethyl-7-(3-(trifluoromethoxy)benzyl)-1H-purine-2,6(3H,7H)-dione] |
| < 100 | CCCC(=O)CSc1nc2c(c(=O)n(C)c(=O)n2C)n1Cc1cccc(Br)c1 [Compound 13, 7-(3-bromobenzyl)-1,3-dimethyl-8-(2-oxopentylthio)-1H-purine-2,6(3H,7H)-dione] |
| < 100 | CCCCCCOc1nc2c(c(=O)n(C)c(=O)n2C)n1Cc1ccc(Cl)cc1 [Compound 215, 7-(4-Chlorobenzyl)-8-(hexyloxy)-1,3-dimethyl-1H-purine-2,6(3H,7H)-dione] |
| < 100 | CCCC(O)C(C)(C)Sc1nc2c(c(=O)n(C)c(=O)n2C)n1Cc1cccc(Br)c1 (stereo not drawn) [Compound 122, 7-(3-bromobenzyl)-8-(3-hydroxy-2-methylhexan-2-ylthio)-1,3-dimethyl-1H-purine-2,6(3H,7H)-dione] |
| < 100 | CCOC(=O)C(C)(C)Sc1nc2c(c(=O)n(C)c(=O)n2C)n1Cc1cccc(Br)c1 [Compound 9, Ethyl 2-(7-(3-bromobenzyl)-1,3-dimethyl-2,6-dioxo-2,3,6,7-tetrahydro-1H-purin-8-ylthio)-2-methylpropanoate] |
| < 100 | CCCc1cccc(Oc2nc3c(c(=O)n(C)c(=O)n3C)n2Cc2cccc(Br)c2)c1 [Compound 113, 7-(3-bromobenzyl)-1,3-dimethyl-8-(3-propylphenoxy)-1H-purine-2,6(3H,7H)-dione] |
| 100 to 500 | Cc1ccc(Cn2c(Oc3cccc(OC(F)(F)F)c3)nc3c2c(=O)n(C)c(=O)n3C)cc1 [Compound 178, 1,3-dimethyl-7-(4-methylbenzyl)-8-(3-(trifluoromethoxy)phenoxy)-1H-purine-2,6(3H,7H)-dione] |
| 100 to 500 | Cn1c(=O)c2c(nc(Sc3cccc(C(F)(F)F)c3)n2Cc2ccc(Cl)cc2)n(C)c1=O [Compound 192, 7-(4-chlorobenzyl)-1,3-dimethyl-8-(3-(trifluoromethyl)phenylthio)-1H-purine-2,6(3H,7H)-dione] |
| < 100 | Cn1c(=O)c2c(nc(OCc3cccc(C(F)(F)F)c3)n2Cc2ccc(Cl)cc2)n(C)c1=O [Compound 145, 7-(4-chlorobenzyl)-1,3-dimethyl-8-(3-(trifluoromethyl)benzyloxy)-1H-purine-2,6(3H,7H)-dione] |

— patent publication US20160145257A1, “SUBSTITUTED XANTHINES AND METHODS OF USE THEREOF” (Hydra Biosciences, Inc., priority 2013, published 2016)
